Assay results: patent US20230416248A1, “COMPOUNDS AND USES THEREOF” (Foghorn Therapeutics Inc., priority 2020, published 2023)
Like-named read-outs stand apart in the source and are kept apart here.

Assays:
BRG-1 = biological target: T1, BRG-1 (Homo sapiens, UniProt P51532); assay: ATPase catalytic activity of BRG-1, ADP-Glo in vitro biochemical assay; settings: 30 nM BRG-1, 400 μM ATP, read-out: BRG1 IC50
T1 construct: made in house; host or cells: High Five insect cells
In short: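 BRG-1 ATPase activity was measured in vitro by ADP-Glo. After the reaction, ADP-Glo Reagent depleted unconsumed ATP (40 min, room temperature), then Kinase Detection Reagent converted product ADP to ATP (60 min, room temperature), and luciferase luminescence was read.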

BRM = biological target: T2, BRM (Homo sapiens, UniProt P51531); assay: ATPase catalytic activity of BRM, ADP-Glo in vitro biochemical assay; settings: for IC50: 30 nM BRM, 400 μM ATP; for Ratio* (BRG1 IC50 (μM) divided by BRM IC50 (μM)): selectivity ratio BRG1 IC50 / BRM IC50
T2 construct: made in house; host or cells: High Five insect cells
T2 sequence (P51531 whole entry): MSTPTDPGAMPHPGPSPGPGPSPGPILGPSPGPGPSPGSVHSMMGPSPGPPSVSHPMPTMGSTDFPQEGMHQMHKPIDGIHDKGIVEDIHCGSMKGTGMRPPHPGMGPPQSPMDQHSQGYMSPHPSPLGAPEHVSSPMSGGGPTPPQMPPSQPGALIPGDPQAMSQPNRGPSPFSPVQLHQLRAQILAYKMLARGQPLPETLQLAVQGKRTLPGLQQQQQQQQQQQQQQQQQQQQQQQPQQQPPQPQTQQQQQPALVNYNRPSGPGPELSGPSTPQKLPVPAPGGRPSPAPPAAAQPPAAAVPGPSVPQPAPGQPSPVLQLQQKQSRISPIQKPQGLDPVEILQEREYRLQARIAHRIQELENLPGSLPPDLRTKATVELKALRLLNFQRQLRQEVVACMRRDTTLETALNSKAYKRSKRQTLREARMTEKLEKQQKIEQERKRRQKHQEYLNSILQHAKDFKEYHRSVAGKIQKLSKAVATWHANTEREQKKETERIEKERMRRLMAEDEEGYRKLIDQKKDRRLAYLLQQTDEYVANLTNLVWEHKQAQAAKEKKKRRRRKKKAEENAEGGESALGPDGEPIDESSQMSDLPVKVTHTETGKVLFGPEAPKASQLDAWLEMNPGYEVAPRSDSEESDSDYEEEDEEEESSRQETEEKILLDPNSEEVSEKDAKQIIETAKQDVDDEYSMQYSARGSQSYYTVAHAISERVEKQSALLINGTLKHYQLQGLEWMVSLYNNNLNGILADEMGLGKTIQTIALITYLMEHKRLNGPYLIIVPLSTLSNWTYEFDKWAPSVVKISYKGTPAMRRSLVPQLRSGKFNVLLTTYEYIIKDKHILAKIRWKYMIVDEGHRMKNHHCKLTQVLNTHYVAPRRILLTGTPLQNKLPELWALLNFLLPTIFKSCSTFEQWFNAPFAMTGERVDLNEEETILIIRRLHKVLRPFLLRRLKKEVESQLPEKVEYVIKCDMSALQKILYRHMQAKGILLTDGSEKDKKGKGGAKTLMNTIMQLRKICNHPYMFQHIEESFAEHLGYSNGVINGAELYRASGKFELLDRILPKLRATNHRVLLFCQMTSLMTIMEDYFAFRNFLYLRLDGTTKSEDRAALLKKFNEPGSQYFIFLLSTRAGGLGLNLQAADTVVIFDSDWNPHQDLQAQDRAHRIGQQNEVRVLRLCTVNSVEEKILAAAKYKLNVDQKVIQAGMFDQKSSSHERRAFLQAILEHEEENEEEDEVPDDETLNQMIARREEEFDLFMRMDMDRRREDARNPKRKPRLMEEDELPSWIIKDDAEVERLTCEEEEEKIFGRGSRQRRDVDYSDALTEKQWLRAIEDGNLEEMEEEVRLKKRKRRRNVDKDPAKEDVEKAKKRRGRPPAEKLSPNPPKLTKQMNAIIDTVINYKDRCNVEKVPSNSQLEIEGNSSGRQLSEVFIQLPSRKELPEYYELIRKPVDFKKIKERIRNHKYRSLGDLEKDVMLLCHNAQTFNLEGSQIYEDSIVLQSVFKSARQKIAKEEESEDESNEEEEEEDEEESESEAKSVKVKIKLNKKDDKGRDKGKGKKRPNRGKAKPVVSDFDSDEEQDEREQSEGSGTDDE
In short: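 Recombinant BRM (30 nM) hydrolysed 400 μM ATP with 20 nM salmon sperm DNA in pH 8 Tris buffer containing 20 mM MgCl2, 50 mM NaCl, 0.1% Tween-20 and 1 mM DTT, 1 h at room temperature. ADP formed was quantified by ADP-Glo luminescence.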

[1] = ATPase catalytic activity, ADP-Glo

T1 sequence (P51532 whole entry): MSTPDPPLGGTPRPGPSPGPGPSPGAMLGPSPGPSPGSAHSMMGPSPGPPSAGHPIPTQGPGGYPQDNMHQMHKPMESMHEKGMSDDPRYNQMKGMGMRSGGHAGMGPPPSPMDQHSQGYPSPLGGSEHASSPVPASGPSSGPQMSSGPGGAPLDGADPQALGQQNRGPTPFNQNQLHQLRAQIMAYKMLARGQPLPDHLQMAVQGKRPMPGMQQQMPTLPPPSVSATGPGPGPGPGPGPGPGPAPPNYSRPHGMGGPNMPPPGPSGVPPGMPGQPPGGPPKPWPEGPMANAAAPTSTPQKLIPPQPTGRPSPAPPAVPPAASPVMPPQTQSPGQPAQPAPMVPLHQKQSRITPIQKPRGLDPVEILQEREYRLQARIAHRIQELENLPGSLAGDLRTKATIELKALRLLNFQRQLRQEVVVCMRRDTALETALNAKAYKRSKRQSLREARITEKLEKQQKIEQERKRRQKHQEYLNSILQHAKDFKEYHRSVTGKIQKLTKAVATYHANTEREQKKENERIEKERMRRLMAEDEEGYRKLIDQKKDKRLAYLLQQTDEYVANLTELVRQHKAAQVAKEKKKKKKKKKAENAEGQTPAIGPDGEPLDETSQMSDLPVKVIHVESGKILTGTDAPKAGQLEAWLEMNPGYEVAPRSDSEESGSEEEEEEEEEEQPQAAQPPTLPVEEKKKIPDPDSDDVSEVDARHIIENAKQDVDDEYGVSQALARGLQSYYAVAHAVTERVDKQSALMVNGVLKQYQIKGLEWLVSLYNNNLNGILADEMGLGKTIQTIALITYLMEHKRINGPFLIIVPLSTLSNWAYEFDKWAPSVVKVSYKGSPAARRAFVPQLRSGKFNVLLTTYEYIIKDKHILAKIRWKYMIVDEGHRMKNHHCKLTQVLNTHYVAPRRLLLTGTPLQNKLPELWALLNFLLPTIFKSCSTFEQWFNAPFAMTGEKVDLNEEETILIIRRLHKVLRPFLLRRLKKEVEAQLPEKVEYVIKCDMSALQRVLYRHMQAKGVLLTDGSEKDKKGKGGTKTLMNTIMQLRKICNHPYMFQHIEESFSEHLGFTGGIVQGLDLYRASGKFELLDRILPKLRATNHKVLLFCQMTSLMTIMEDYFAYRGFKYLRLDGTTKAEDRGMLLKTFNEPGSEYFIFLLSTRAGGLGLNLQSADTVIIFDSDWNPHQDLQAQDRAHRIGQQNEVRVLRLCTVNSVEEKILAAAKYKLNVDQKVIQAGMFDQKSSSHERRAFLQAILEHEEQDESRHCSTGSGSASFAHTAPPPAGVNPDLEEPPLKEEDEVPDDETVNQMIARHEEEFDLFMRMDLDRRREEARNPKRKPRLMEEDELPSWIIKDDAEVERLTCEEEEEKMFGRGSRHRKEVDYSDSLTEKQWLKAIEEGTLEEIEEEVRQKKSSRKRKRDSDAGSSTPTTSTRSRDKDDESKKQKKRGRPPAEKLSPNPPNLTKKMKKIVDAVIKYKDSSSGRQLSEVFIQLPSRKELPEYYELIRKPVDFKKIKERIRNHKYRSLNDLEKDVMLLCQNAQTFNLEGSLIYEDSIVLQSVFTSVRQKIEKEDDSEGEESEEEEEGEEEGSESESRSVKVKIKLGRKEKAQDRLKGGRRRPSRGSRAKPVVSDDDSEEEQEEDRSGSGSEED

| Structure (SMILES) | IC50 (BRG-1; ADP-Glo ATPase assay) | IC50 (BRM; ADP-Glo ATPase assay) | Ratio* (BRG1 IC50 (μM) divided by BRM IC50 (μM)) (BRM) | Ratio* (BRM; ratio BRG1 IC50 / BRM IC50) | IC50 (BRG-1; [1]) | IC50 (BRM; [1]) | Ratio* (BRM; ratio of BRG1 IC50 to BRM IC50) |
| --- | --- | --- | --- | --- | --- | --- | --- |
| Cn1ccc(-c2cccc(-c3ccc4cnc(CNC(=O)c5ccc6c(c5)S(=O)(=O)CCOC6)cc4n3)c2)n1 [Compound 244] | 337 nM | 20.7 nM | 16.32 |  |  |  |  |
| Cn1cnc2c1CCCN2c1ccc2cnc(CNC(=O)c3ccc4c(c3)S(=O)(=O)CCOC4)cc2n1 [Compound 688] |  |  |  |  | 1710 nM | 257 nM | 6.65 |
| C[C@@H]1CN(c2cccc(-c3ccc4cnc(CNC(=O)c5cc(Cl)c6c(c5)S(=O)(=O)CCOC6)cc4n3)n2)C[C@H](C)O1 [Compound 389] |  |  |  |  | 528 nM | 13.7 nM | 38.63 |
| O=C(NCc1cc2nc(-c3cccc(N4CCOCC4)n3)ccc2cn1)c1ccc2c(c1)S(=O)(=O)CCOC2 [Compound 226] | 136 nM | 11.1 nM | 12.29 |  |  |  |  |
| O=C(NCc1cc2nc(-c3cccc(C4CC(F)(F)C4)n3)ccc2cn1)c1ccc2c(c1)S(=O)(=O)CCOC2 [Compound 171] | 499 nM | 52.4 nM | 9.52 |  |  |  |  |
| O=C(NCc1cc2nc(-c3cccc(N4CCOCC(F)(F)C4)n3)ccc2cn1)c1ccc2c(c1)S(=O)(=O)CCOC2 [Compound 341] |  |  |  |  | 185 nM | 25.1 nM | 7.37 |
| O=C(NCc1cc2nc(N3CCC4(CCC4)c4cccnc43)ccc2cn1)c1ccc2c(c1)S(=O)(=O)CCOC2 [Compound 723] | 667 nM | 40.2 nM |  | 16.58 |  |  |  |
| O=C(NCc1cc2nc(N3CCc4ccc(Cl)cc43)ccc2cn1)c1ccc2c(c1)S(=O)(=O)CCOC2 [Compound 654] |  |  |  |  | 2570 nM | 104 nM | 24.78 |
| O=C(NCc1cc2nc(N3CCCc4c(OC5CC5)ccnc43)ccc2cn1)c1ccc2c(c1)S(=O)(=O)CCOC2 [Compound 677] |  |  |  |  | 35.7 nM | 3.8 nM | 9.28 |
| N#Cc1ccc2c(c1)N(c1ccc3cnc(CNC(=O)c4ccc5c(c4)S(=O)(=O)CCOC5)cc3n1)CCC2 [Compound 558] |  |  |  |  | 139 nM | 9.3 nM | 14.96 |
| CCOc1cccc(-c2ccc3cnc(CNC(=O)c4ccc5c(c4)S(=O)(=O)[C@@H](C)COC5)cc3n2)n1 [Compound 330] |  |  |  |  | 473 nM | 11 nM | 43.09 |
| CN1CCN(c2ccc3cnc(CNC(=O)c4ccc5c(c4)S(=O)(=O)CCOC5)cc3n2)c2ncccc21 [Compound 442] |  |  |  |  | 178 nM | 16.4 nM | 10.89 |
| N=S1(=O)CCOCc2ccc(C(=O)NCc3cc4nc(-c5cncc(C6CC6)n5)ccc4cn3)cc21 (stereo not drawn) [Compound 286] | 4890 nM | 351 nM | 13.91 |  |  |  |  |
| COc1cc(C(F)F)ccc1-c1ccc2cnc(CNC(=O)c3ccc4c(c3)S(=O)(=O)[C@@H](C)COC4)cc2n1 [Compound 320] |  |  |  |  | 226 nM | 12 nM | 18.81 |
| O=C(NCc1cc2nc(N3CCc4cnccc4C3)ccc2cn1)c1ccc2c(c1)S(=O)(=O)CCOC2 [Compound 87] | 4920 nM | 689 nM | 7.14 |  |  |  |  |
| COC[C@@H](C)Nc1cccc(-c2ccc3cnc(CNC(=O)c4ccc(C(F)F)c(S(C)(=O)=O)c4)cc3n2)n1 [Compound 60] | 5000 nM | 789 nM | 6.34 |  |  |  |  |
| O=C(NCc1cc2nc(N3CCCc4ccc(C5CC5)nc43)ccc2cn1)c1ccc2c(c1)S(=O)(=O)CCOC2 [Compound 536] |  |  |  |  | 590 nM | 10.4 nM | 56.64 |
| C[C@H]1CCN(C)c2nc(-c3ccc4cnc(CNC(=O)c5ccc6c(c5)S(=O)(=O)CCOC6)cc4n3)ccc21 [Compound 694] |  |  |  |  | 287 nM | 34.2 nM | 8.38 |
| O=C(NCc1cc2nc(N3CCOc4cc(C5CC5)cnc43)ccc2cn1)c1ccc2c(c1)S(=O)(=O)CCOC2 [Compound 503] |  |  |  |  | 73.7 nM | 5.8 nM | 12.62 |

Other lines, results leading:

| IC50 (BRG-1; ADP-Glo ATPase assay) | IC50 (BRM; ADP-Glo ATPase assay) | Ratio* (BRG1 IC50 (μM) divided by BRM IC50 (μM)) (BRM) | Ratio* (BRM; ratio BRG1 IC50 / BRM IC50) | IC50 (BRG-1; [1]) | IC50 (BRM; [1]) | Ratio* (BRM; ratio of BRG1 IC50 to BRM IC50) | Structure (SMILES) |
| --- | --- | --- | --- | --- | --- | --- | --- |
| 105 nM | 8.1 nM |  | 12.88 |  |  |  | CN(C)c1cc2c(cn1)N(c1ccc3cnc(CNC(=O)c4ccc5c(c4)S(=O)(=O)CCOC5)cc3n1)CCO2 [Compound 803] |
|  |  |  |  | 679 nM | 32.6 nM | 20.83 | O=C(NCc1cc2nc(N3CCCc4ccc(N5CCC5)nc43)ccc2cn1)c1ccc2c(c1)S(=O)(=O)CCOC2 [Compound 566] |
|  |  |  |  | 58.6 nM | 12.5 nM | 4.69 | C[C@@H]1CN(c2cccc(-c3ccc4cnc(CNC(=O)c5cnc6c(c5)S(=O)(=O)CCCC6(F)F)cc4n3)n2)C[C@H](C)O1 [Compound 407] |
|  |  |  |  | 991 nM | 29.3 nM | 33.79 | O=C(NCc1cc2nc(N3CCCc4ccc(COC5CC5)nc43)ccc2cn1)c1ccc2c(c1)S(=O)(=O)CCOC2 [Compound 598] |
|  |  |  |  | 170 nM | 9.8 nM | 17.38 | O=C(NCc1cc2nc(N3CCOc4cc(Cl)cnc43)ccc2cn1)c1ccc2c(c1)S(=O)(=O)CCOC2 [Compound 645] |
| 664 nM | 11.9 nM |  | 55.91 |  |  |  | O=C(NCc1cc2nc(N3CCOc4ccc([C@H](F)CF)nc43)ccc2cn1)c1ccc2c(c1)S(=O)(=O)CCOC2 [Compound 856] |
|  |  |  |  | 81 nM | 9.9 nM | 8.22 | COCCN1c2cccc(-c3ccc4cnc(CNC(=O)c5ccc6c(c5)S(=O)(=O)CCOC6)cc4n3)c2OCC1C (stereo not drawn) [Compound 326] |
|  |  |  |  | 399 nM | 20.3 nM | 19.65 | Cc1ccc2c(c1)OCCN2c1ccc2cnc(CNC(=O)c3ccc4c(c3)S(=O)(=O)CCCO4)cc2n1 [Compound 551] |
| 159 nM | 9.5 nM |  | 16.66 |  |  |  | Cc1cc(F)c2c(c1)OCCN2c1ccc2cnc(CNC(=O)c3ccc4c(c3)S(=O)(=O)CCOC4)cc2n1 [Compound 764] |
|  |  |  |  | 377 nM | 21.2 nM | 17.82 | C[C@@H]1C[C@@H](N(C)c2cccc(-c3ccc4cnc(CNC(=O)c5ccc6c(c5)S(=O)(=O)CCOC6)cc4n3)n2)C[C@H](C)O1 [Compound 334] |
| 570 nM | 121 nM | 4.71 |  |  |  |  | COCCN1CCCc2c(-c3ccc4cnc(CNC(=O)c5ccc6c(c5)S(=O)(=O)CCOC6)cc4n3)cccc21 [Compound 84] |
|  |  |  |  | 3670 nM | 263 nM | 13.96 | CO[C@H](C)Cn1ccc2c(-c3ccc4cnc(CNC(=O)c5ccc6c(c5)S(=O)(=O)CCOC6)cc4n3)ccnc21 [Compound 448] |
| 86.2 nM | 6.3 nM |  | 13.67 |  |  |  | Cc1cnc2c(c1)C1(CCN2c2ccc3cnc(CNC(=O)c4ccc5c(c4)S(=O)(=O)CCOC5)cc3n2)CC1 [Compound 734] |
|  |  |  |  | 86.8 nM | 6.4 nM | 13.54 | CCc1cnc2c(c1)OCCN2c1ccc2cnc(CNC(=O)c3ccc4c(c3)S(=O)(=O)CCOC4)cc2n1 [Compound 665] |
| 570 nM | 47.9 nM | 11.91 |  |  |  |  | Cc1cc2c(-c3ccc4cnc(CNC(=O)c5ccc(Cl)c(S(C)(=O)=O)c5)cc4n3)cccc2n1C [Compound 129] |
| 959 nM | 79.7 nM |  | 12.03 |  |  |  | COCc1cc2c(cn1)N(c1ccc3cnc(CNC(=O)c4ccc5c(c4)S(=O)(=O)CCOC5)cc3n1)CCC2 [Compound 821] |
| 879 nM | 94 nM | 9.35 |  |  |  |  | COC1CCOc2c(-c3ccc4cnc(CNC(=O)c5ccc6c(c5)S(=O)(=O)CCOC6)cc4n3)cccc21 (stereo not drawn) [Compound 168] |
| 28.7 nM | 4.6 nM | 6.29 |  |  |  |  | C[C@@H]1CN(c2cccc(-c3ccc4cnc(CNC(=O)c5ccc6c(c5)S(=O)(=O)CCOC6)cc4n3)n2)CCO1 [Compound 225] |
| 6360 nM | 869 nM | 7.32 |  |  |  |  | O=C(NCc1cc2nc(-c3cncc(C4CC4)n3)ccc2cn1)c1ccc2c(c1)[S+]([O-])CCOC2 (stereo not drawn) [Compound 299] |
|  |  |  |  | 130 nM | 8.6 nM | 15.19 | COc1nc(C(F)F)ccc1-c1ccc2cnc(CNC(=O)c3ccc4c(c3)S(=O)(=O)CCOC4)cc2n1 [Compound 329] |
|  |  |  |  | 152 nM | 12.4 nM | 12.27 | O=C(NCc1cc2nc(-c3cccc([C@]45CCOCC4C5)n3)ccc2cn1)c1ccc2c(c1)S(=O)(=O)CCOC2 (stereo partly drawn) [Compound 377] |
| 1180 nM | 60.1 nM | 19.73 |  |  |  |  | O=C(NCc1cc2nc(-c3cccc(C4CC4)n3)cnc2cn1)c1ccc2c(c1)S(=O)(=O)CCOC2 [Compound 191] |
| 376 nM | 19.4 nM |  | 19.41 |  |  |  | O=C(NCc1cc2nc(N3CCOc4cc(C5(C(F)F)CC5)cnc43)ccc2cn1)c1ccc2c(c1)S(=O)(=O)CCOC2 [Compound 847] |
|  |  |  |  | 213 nM | 25.2 nM | 8.46 | C[C@@H]1CN(c2cccc(-c3ccc4cnc(CNC(=O)c5ccc6c(c5)S(=O)(=O)CCO[C@@H]6C5CC5)cc4n3)n2)C[C@H](C)O1 [Compound 454] |
| 240 nM | 13.6 nM | 17.62 |  |  |  |  | C[C@@H]1CN(c2cccc(-c3cnc4cnc(CNC(=O)c5ccc(C(F)F)c(S(C)(=O)=O)c5)cc4n3)n2)C[C@H](C)O1 [Compound 56] |
